# Experimental data published in paper PMC2782732 (ACS chemical biology, 2008).
# Target: dengue E protein (Dengue virus type 2, UniProt P12823)
# Assay type: binding
# Settings: BOG plus dengue E protein, on-resonance irradiation at −2 ppm
compound,measurement,value
"CCCCCCCCO[C@@H]1O[C@H](CO)[C@@H](O)[C@H](O)[C@H]1O [BOG, N-octyl-β-D-glucoside]",STD NMR signal of ligand with E protein,strong signals
